The subject of one experiment is NCI-H460. The experiment is described as follows: Growth inhibition of human NCI-H460 cells after 48 hrs by sulforhodamine B assay. It is filed as functional. Conditions: NCI-H460, 48 h. (In SRB staining, fixed cells bind dye roughly in proportion to their protein.)
The next experiment concerns SF-268. The experiment is described as follows: Growth inhibition of human SF268 cells after 48 hrs by sulforhodamine B assay. To be noted: SF-268, 48 h. It is filed as functional.
In the next experiment the test system is MCF7. Kind of experiment: Growth inhibition of human MCF7 cells after 48 hrs by sulforhodamine B assay. Format: functional. Conditions: MCF7, 48 h.
For another experiment, the system named is UACC-62. The experiment is described as follows: Growth inhibition of human UACC62 cells after 48 hrs by sulforhodamine B assay. To be noted: UACC-62, 48 h. It is filed as functional.
Another experiment concerns WI-38 VA13. Kind of experiment: Growth inhibition of human VA13 cells after 48 hrs by sulforhodamine B assay. It is filed as functional, cell-based.
In a further experiment the test system is HepG2. The experiment is described as follows: Growth inhibition of human HepG2 cells after 48 hrs by sulforhodamine B assay. Format: functional, cell-based.

Molecules are shown by their SMILES. Calls of active or inactive are those of the source. The calls are words filed in the database; no cut-off is given here. Where only a bound is given, the exact number is not on record here.

For `CCOC(=O)C(CCc1ccc(N=[N+]=[N-])cc1)c1ccccc1` (centres undefined), the GI50 in the experiment with NCI-H460 was above 160 µM; with SF-268, above 160 µM; with MCF7, 125 µM.
As for `CCOC(=O)C(CCc1ccc([N+](=O)[O-])cc1)c1ccccc1` (centres undefined), the GI50 with NCI-H460 is above 150 µM; in the experiment on SF-268, above 150 µM; with MCF7, 134 µM.
Consider `COC(=O)/C=C/c1cccc([N+](=O)[O-])c1`, for which the GI50 in the experiment on NCI-H460 is 175 µM; in the experiment with SF-268, 180 µM; in the experiment with MCF7 it was 74.1 µM.
In the case of `CCOC(=O)C(CCc1cccc(N)c1)c1ccccc1` (centres undefined), the 50% growth inhibitory concentration (GI50) with NCI-H460 amounted to 132 µM; in the experiment on UACC-62, 102 µM; in the experiment on SF-268, 159 µM; in the experiment with MCF7, 104 µM.
In the case of `O=[N+]([O-])c1cccc(CCCO)c1`, the concentration for 50% growth inhibition (GI50) with NCI-H460, in the experiment with UACC-62, in the experiment with SF-268 and with MCF7 was above 250 µM in each case.
As for `CCOC(=O)C1CCC2(C=CC(=O)C=C2)c2ccccc21` (centres undefined), the GI50 with NCI-H460 is 19.2 µM; in the experiment with SF-268, 21.9 µM; in the experiment on MCF7, 16.4 µM.
With `O=[N+]([O-])c1ccc(CCI)cc1`, the figures for the GI50 in the experiment on NCI-H460, in the experiment on SF-268 and in the experiment on MCF7 were 112 µM, 95.7 µM and 55.8 µM, respectively.
Regarding `CCOC(=O)C(CCc1cccc(N=[N+]=[N-])c1)c1ccccc1` (centres undefined), the GI50 in the experiment on NCI-H460 is above 160 µM; with SF-268, above 160 µM; in the experiment with MCF7 it was 120 µM.
In the case of `CCOC(=O)C1CCC(c2ccc(N)cc2)c2ccccc21` (racemic), the GI50 turned out to be 142 µM with NCI-H460, 116 µM with SF-268 and 117 µM in the experiment on MCF7. Moreover, the “growth inhibition (GI)” value in the experiment on WI-38 VA13 was “inactive”.
On to `CCOC(=O)C(CCCc1cccc(N=[N+]=[N-])c1)c1ccccc1` (centres undefined), for which the GI50 in the experiment on NCI-H460 was above 150 µM; in the experiment on SF-268, above 150 µM; with MCF7, 119 µM.
For the compound `CCOC(=O)C(CCCc1ccc(N)cc1)c1ccccc1` (centres undefined), the GI50 in the experiment on NCI-H460 was above 160 µM; in the experiment with UACC-62, above 100 µM; with SF-268, above 160 µM; in the experiment with MCF7 it was 155 µM.
In the case of `CCOC(=O)C(CCc1cccc([N+](=O)[O-])c1)c1ccccc1` (centres undefined), the results for the GI50 in the experiment with NCI-H460, in the experiment on SF-268 and with MCF7 were 149 µM, above 150 µM and 92.7 µM, respectively.
Regarding `CCOC(=O)C(CCc1ccc(N)cc1)c1ccccc1` (centres undefined), the GI50 in the experiment with NCI-H460 turned out to be 40.8 µM; with UACC-62, 23.3 µM; with SF-268, 51.8 µM; with MCF7 it was 36.3 µM.
Turning to `CCOC(=O)C(CCCc1cccc(N)c1)c1ccccc1` (centres undefined), the 50% growth inhibitory concentration (GI50) in the experiment with NCI-H460 is 154 µM; in the experiment with UACC-62, 125 µM; in the experiment with SF-268, above 160 µM; with MCF7 it was 109 µM.
With `COC(=O)/C=C/c1ccc([N+](=O)[O-])cc1`, the 50% growth inhibitory concentration (GI50) with NCI-H460 was above 240 µM; in the experiment with SF-268, above 240 µM; in the experiment on MCF7, 214 µM.
`COc1cc(C2c3c(cc4c(c3OC)OCO4)CC(COC(C)=O)C2COC(C)=O)cc(OC)c1O` (centres undefined): the “growth inhibition (GI)” value in the experiment with HepG2 was “inactive”.
For the compound `CCOC(=O)C(CCCc1ccc(N=[N+]=[N-])cc1)c1ccccc1` (centres undefined), the GI50 in the experiment on NCI-H460, in the experiment on SF-268 and in the experiment on MCF7 was above 150 µM in each case.
With `CCOC(=O)C(CCCc1cccc([N+](=O)[O-])c1)c1ccccc1` (centres undefined), the GI50 with NCI-H460 is above 150 µM; in the experiment with SF-268, above 150 µM; in the experiment on MCF7, 149 µM.
In the case of `CCOC(=O)C(CCCc1ccc([N+](=O)[O-])cc1)c1ccccc1` (centres undefined), the GI50 turned out to be 19.4 µM in the experiment with NCI-H460, 23.2 µM in the experiment with SF-268 and 16.4 µM in the experiment on MCF7.
Take `COc1cccc2c1C(=O)c1c(O)c3c(c(O)c1C2=O)C[C@@](O)(C(=O)CO)C[C@@H]3O[C@H]1C[C@H](N)[C@H](O)[C@H](C)O1` [DOXORUBICIN]: the GI50 came out at 0.094 µM in the experiment with NCI-H460, 0.094 µM with SF-268 and 42.8 µM in the experiment with MCF7.

For orientation: GI50 means the concentration giving 50% growth inhibition. Lower therefore signals greater sensitivity of the cells.

The values are drawn from ChEMBL document CHEMBL1773025, “Synthesis of tetrahydronaphthalene lignan esters by intramolecular cyclization of ethyl p-azidophenyl-2-phenylalkanoates and evaluation of the growth inhibition of human tumor cell lines” (2011).
